Assay results: patent publication US12303594B2, “Antimicrobial and anti-inflammatory compositions” (The Texas A&M University System, priority 2015, dated 2025)

Key:
[1] = system: Staphylococcus aureus vancomycin-intermediate (VISA) strain (Mu50); experiment: Endpoint CFU counting; conditions: 6 hours in MH, free ibuprofen
Procedure: (§2) Various gram-negative bacterial strains (Pseudomonas aeruginosa, PA01: Burkholderia multivorans, BM; and an Escherichia coli strain. EC J53+pmg101) were cultured in Mueller Hinton (MH) broth to a density of 5*10^5 colony forming units (CFU)/ml as verified by serial dilution and growth of colonies on tryptic soy agar (TSA) plates. […] Endpoint CFU counting was also performed on PA01 and a Staphylococcus aureus vancomycin-intermediate (VISA) strain (Mu50).

[2] = Angle of repose (USP method); type: physicochemical; conditions: N = 3
Procedure: Angle of repose: Angles of repose were measured in triplicate according to the United States Pharmacopoeia (USP) method. Images of the powder mounds were taken using a digital camera and were analyzed using the ImageJ software (Wayne Rasband, Research Services Branch, National Institute of Mental Health, Bethesda, MD, USA). […]

[3] = Brunauer-Emmett-Teller specific surface area; type: physicochemical
Procedure: Brunauer-Emmett-Teller: Surface area (SA) was evaluated via a single-point BET method using a Monosorb® surface area analyzer (Quantrachrome Instruments; FL, USA) following 24 hour outgassing with helium at room temperature (RT) before each measurement in triplicate on a known powder mass (m). SSA was calculated using Equation 3: […]
Brunauer-Emmett-Teller (BET) specific surface area (SSA) measurements were taken. Surface area (SA) was evaluated via a single-point BET method using a Monosorb® surface area analyzer (Quantrachrome Instruments; FL, USA) following 24 hour outgassing with helium at room temperature before each measurement in triplicates. Samples masses (m) were at least 50 mg for the jet-milled powders depending on availability and 500 mg for the unprocessed samples. SSA was calculated according to the following formula: […]

[4] = system: Burkholderia multivorans, BM; experiment: In vitro bacterial growth study (OD600); conditions: 10 μg/mL or 1 μg/mL ibuprofen solution added 1:1 (v:v)
Procedure: as §2

[5] = system: Pseudomonas aeruginosa, PA01; experiment: In vitro bacterial growth study (OD600); conditions: 10 μg/mL or 1 μg/mL ibuprofen solution added 1:1 (v:v)
Procedure: as §2

[6] = system: Pseudomonas aeruginosa (strain PA HP3); experiment: Minimum inhibitory concentration (MIC); type: cell-based; conditions: alone
Procedure: (§1) The final concentrations of aztreonam, ceftazidime and vancomycin were 0.06, 0.13, 0.25, 0.5, 1, 2, 4, 8, 16, 32, 64, and 128 μg/ml. The plates were incubated overnight at 37° C. […] Each triplicate was performed at least twice.

[7] = system: methicillin-resistant Staphylococcus aureus (strain MRSA 0646); experiment: Minimum inhibitory concentration (MIC); type: cell-based; conditions: alone, read-out: MIC
Procedure: as §1

SMILES: CC(C)Cc1ccc(C(C)C(=O)O)cc1 (centres unmarked) [ibuprofen, 2(4-isobutylphenyl)propanoic acid]
- CFU [1]: Significant reduction in CFU
- Angle of Repose [2]: 62.6 ± 2.9 º
- surface area [3]: 0.357±0.005 m^2/g
- SSA ([3]; N = 3): 0.36 ± 0.01 m^2/g
- bacterial growth (OD600) [4]: slowed and/or delayed the growth
- bacterial growth (OD600) [5]: slowed and/or delayed the growth
- MIC [6]: > 128 mg/L
- MIC [7]: > 128 mg/L
